Test results published in patent US5411984A, “Water soluble analogs and prodrugs of taxol” (Virginia Tech Intellectual Properties, Inc., priority 1992, dated 1995).
Where a name gives a salt, the structure may show the parent alone.

Legend:
[1] = Relative solubility by the 1-octanol and water partition method (UV absorption at 228 nm), taxol = 1
Experimental: In separate experiments, taxol derivative 4 and 2'-succinyl taxol (R=NaO2 CCH2 CH2 CO2) were dissolved in a mildly basic aqueous solution.
*Solubilities were determined by using the 1octanol and water partition
method.Sample concentrations in water were determined by UV absorptions a […]

[2] = Stability in pH 5 buffer / mildly acidic aqueous solution (HPLC or TLC, onset of cloudiness); assay type: physicochemical; details: room temperature
Experimental: **Stabilities were determined in pH 5 buffer solution by one of the two
methods indicated below.
(a) 9.5 mg of sample was dissolved in 0.2 ml of EtOH and 0.2 ml of pH 5
buffer solution and let stand at room temperature. The progress of
decomposition was checked by HPLC or TLC and observation of the onset of
(b) 0.5 mg of sample was dissolved in 0.1 ml of EtOH and 0.9 ml of pH 5
buffer solution, the other conditions were the same as in (a) above. All
samples were stable under these conditions for at least 24 hours. No
hydrolysis was detectable by HPLC or TLC during this time period.

[3] = Stability in mildly basic aqueous solution; assay type: physicochemical
[4] = test system: M109 lung carcinoma; assay: In vivo activity against M109 lung carcinoma implanted intraperitoneally (mice M109 model), median survival; design: species or system Balb/o x DBA/2 F1 hybrid mice
Experimental: Balb/o x DBA/2 F1 hybrid mice were implanted intraperitoneally, as described by William Rose in "Evaluation of Madison 109 Lung Carcinoma as a Model for Screening Antitumor Drugs, "Cancer Treatment Reports, 65 No. 3-4 (1981), with 0.5 mL of a 2% (w/v) brei of M109 lung carcinoma (the mice M109 model).
Mice were treated with a compound under study by receiving intraperitoneal injections of various doses on either Day 1, 5, and 9 post-tumor implant or Days 5 and 8 post-implant. Mice were followed daily for survival until approximately 75-90 days post-tumor implant. One group of mice per experiment remained untreated and served as the control group.
Median survival times of compound-treated (T) mice were compared to the median survival time of the control (C) mice. The ratio of the two values for each compound-treated group of mice was multiplied by 100 and expressed as a percentage (i.e.% T/C) in Table 2 for certain representative compounds.

[5] = cited from earlier work
[6] = cited from earlier work; remark: listed apart in the source
[7] = cited from earlier work; remark: listed apart in the source
[8] = test system: B16 melanoma cells; details: compared with taxol; cited from earlier work
[9] = Deutsch et al.; cited from earlier work
[10] = test system: tubulin; details: cited from earlier work
[11] = method (a): 9.5 mg in 0.2 ml EtOH and 0.2 ml pH 5 buffer
[12] = method (b): 0.5 mg in 0.1 ml EtOH and 0.9 ml pH 5 buffer

For `CC(=O)O[C@H]1C(=O)[C@@]2(C)[C@H]([C@H](OC(=O)c3ccccc3)[C@]3(O)C[C@H](OC(=O)[C@H](OC(=O)c4ccccc4C(=O)O)[C@@H](NC(=O)c4ccccc4)c4ccccc4)C(C)=C1C3(C)C)[C@]1(OC(C)=O)CO[C@@H]1C[C@@H]2O` [Compound 4, Taxol 2'-(sodium 1,2-benzenedicarboxylate)], the “Relative Solubility (p')” value [1] was 3, the “Stabilities at pH 5” value [2, 11] was greater than 24 h and the appearance of solution [3] was “remained clear”. For the same compound, the “extent of decomposition” value [3] was “remained substantially intact”, the T/C ([4]; Q03Dx2;5, ip/ip, dose 15) was 106% and the T/C ([4]; Q03Dx2;5, ip/ip, dose 30) was 135%. For the same compound, the T/C ([4]; Q03Dx2;5, ip/ip, dose 60) was 141%.

With `CCN(CC)CCNC(=O)c1ccc(C(=O)O[C@@H](C(=O)O[C@H]2C[C@@]3(O)[C@@H](OC(=O)c4ccccc4)[C@@H]4[C@]5(OC(C)=O)CO[C@@H]5C[C@H](O)[C@@]4(C)C(=O)[C@H](OC(C)=O)C(=C2C)C3(C)C)[C@@H](NC(=O)c2ccccc2)c2ccccc2)cc1` [Compound 13b, 2'-[4-([2-(N,N-diethylamino)ethyl]aminocarbonyl)benzoyl]taxol, hydrochloride] the “Stabilities at pH 5” value [2, 11] was greater than 24 h, the T/C ([4]; Z03Dx2;5, ip/ip, dose 50) was 118% and the T/C ([4]; Z03Dx2;5, ip/ip, dose 100) was 118%. The T/C ([4]; Z03Dx2;5, ip/ip, dose 200) was 124%.

In the case of `CC(=O)O[C@H]1C(=O)[C@@]2(C)[C@H]([C@H](OC(=O)c3ccccc3)[C@]3(O)C[C@H](OC(=O)[C@H](OC(=O)CCS(=O)(=O)O)[C@@H](NC(=O)c4ccccc4)c4ccccc4)C(C)=C1C3(C)C)[C@]1(OC(C)=O)CO[C@@H]1C[C@@H]2O` [--O2 CCH2 CH2 SO3 Na, 2'-[(3-sulfo-1-oxopropyl)oxy]taxol sodium salt], the “Stabilities at pH 5” value [2, 12] is given as greater than 24 h, the “antineoplastic activity in mice” value [5] is given as “active as antineoplastic agents in mice” and the “aqueous solubility” value [6] is given as “improved water-solubility as compared with taxol”.

With “2'-(4-benzyloxocarbonylbensoyl -7-(4-carboxybensoyl)taxol [Compound 17]” the T/C ([4]; Q03Dx2;5, ip/ip, dose 13) was 97%, the T/C ([4]; Q03Dx2;5, ip/ip, dose 26) was 100% and the T/C ([4]; Q03Dx2;5, ip/ip, dose 52) was 109%.

In the case of `CC(=O)O[C@H]1C(=O)[C@@]2(C)[C@H]([C@H](OC(=O)c3ccccc3)[C@]3(O)C[C@H](OC(=O)[C@H](OC(=O)c4ccccc4S(=O)(=O)O)[C@@H](NC(=O)c4ccccc4)c4ccccc4)C(C)=C1C3(C)C)[C@]1(OC(C)=O)CO[C@@H]1C[C@@H]2O` [Compound 11, 2'-(2-Sulfobenzoyl) taxol, sodium salt], the “Relative Solubility (p')” value [1] is reported as 96 and the “Stabilities at pH 5” value [2, 12] is reported as greater than 24 h.

With `CC(=O)O[C@H]1C(=O)[C@@]2(C)[C@H]([C@H](OC(=O)c3ccccc3)[C@]3(O)C[C@H](OC(=O)[C@H](OC(=O)c4cc(C(=O)O)cc(C(=O)O)c4)[C@@H](NC(=O)c4ccccc4)c4ccccc4)C(C)=C1C3(C)C)[C@]1(OC(C)=O)CO[C@@H]1C[C@@H]2O` [Compound 8c, Taxol 2'-(disodium 1,3,5-benzenetricarboxylate)] the “Stabilities at pH 5” value [2, 12] was greater than 24 h.

In the case of `CC(=O)O[C@H]1C(=O)[C@@]2(C)[C@H]([C@H](OC(=O)c3ccccc3)[C@]3(O)C[C@H](OC(=O)[C@H](OC(=O)CCC(=O)NCCS(=O)(=O)O)[C@@H](NC(=O)c4ccccc4)c4ccccc4)C(C)=C1C3(C)C)[C@]1(OC(C)=O)CO[C@@H]1C[C@@H]2O` [--O2 CCH2 CH2 CONHCH2 --CH2 SO3 Na, 2'-([4-((2-sulfoethyl)amino)-1,4-dioxobutyl]oxy)taxol sodium salt], the “Stabilities at pH 5” value [2, 12] is listed as greater than 24 h, the “antineoplastic activity in mice” value [5] is listed as “active as antineoplastic agents in mice” and the “aqueous solubility” value [6] is listed as “improved water-solubility as compared with taxol”.

With `CC(=O)O[C@H]1C(=O)[C@@]2(C)[C@H]([C@H](OC(=O)c3ccccc3)[C@]3(O)C[C@H](OC(=O)[C@H](OC(=O)c4ccc(C(=O)O)cc4)[C@@H](NC(=O)c4ccccc4)c4ccccc4)C(C)=C1C3(C)C)[C@]1(OC(C)=O)CO[C@@H]1C[C@@H]2O` [Compound 7, Taxol 2'-(sodium 1,4-benzenedioarboxylate)] the “solubility relative to ortho benzoyl carboxylate derivative 4” value ([1]; compared with 4) was “twice as soluble”, the “Stabilities at pH 5” value [2, 11] was greater than 24 h and the T/C ([4]; Q03Dx2;5, ip/ip, dose 15) was 112%. The T/C ([4]; Q03Dx2;5, ip/ip, dose 30) was 141%, the T/C ([4]; Q03Dx2;5, ip/ip, dose 60) was 141% and the “in vivo biological activity relative to derivative 4” value ([4]; mice M109 model) was “superior in vivo biological activity”.

For `CC(=O)O[C@H]1C(=O)[C@@]2(C)[C@H]([C@H](OC(=O)c3ccccc3)[C@]3(O)C[C@H](OC(=O)[C@H](OC(=O)CCC(=O)O)[C@@H](NC(=O)c4ccccc4)c4ccccc4)C(C)=C1C3(C)C)[C@]1(OC(C)=O)CO[C@@H]1C[C@@H]2O` [2'-succinyl taxol, 2'-succinyl taxol (R=NaO2 CCH2 CH2 CO2), reference compound], the “time until solution turned cloudy” value [3] was “less than 24 hours” and the degraded at 24 h ([3]; read-out: decomposed) was roughly 50%.

In the case of `CC(=O)O[C@H]1C(=O)[C@]2(C)[C@@H](OC(C)=O)C[C@H]3OC[C@@]3(OC(C)=O)[C@H]2[C@H](OC(=O)c2ccccc2)[C@]2(O)C[C@H](OC(=O)[C@H](OC(C)=O)[C@@H](NC(=O)c3ccccc3)c3ccccc3)C(C)=C1C2(C)C` [2',7-diacetyltaxol], the “hydrolysis of acyl substituents under in vivo conditions” value [7] is listed as “readily hydrolyzed”.

In the case of `CC(=O)O[C@H]1C(=O)[C@]2(C)[C@@H](OC(=O)c3ccccc3C(=O)O)C[C@H]3OC[C@@]3(OC(C)=O)[C@H]2[C@H](OC(=O)c2ccccc2)[C@]2(O)C[C@H](OC(=O)[C@H](OC(=O)c3ccccc3C(=O)O)[C@@H](NC(=O)c3ccccc3)c3ccccc3)C(C)=C1C2(C)C` [Compound 15, Taxol 2',7-di(sodium 1,2-benzenedicarboxylate)], the T/C ([4]; Z03Dx2;5, site/route not given, dose 15) is reported as 100%, the T/C ([4]; Z03Dx2;5, site/route not given, dose 30) is reported as 103% and the T/C ([4]; Z03Dx2;5, site/route not given, dose 60) is reported as 106%.

For `CC(=O)O[C@H]1C(=O)[C@@]2(C)[C@H]([C@H](OC(=O)c3ccccc3)[C@]3(O)C[C@H](OC(=O)[C@H](OC(C)=O)[C@@H](NC(=O)c4ccccc4)c4ccccc4)C(C)=C1C3(C)C)[C@]1(OC(C)=O)CO[C@@H]1C[C@@H]2O` [2'-acetyltaxol], the “hydrolysis of acyl substituents under in vivo conditions” value [7] is listed as “readily hydrolyzed”.

In the case of `CC(=O)O[C@H]1C(=O)[C@@]2(C)[C@H]([C@H](OC(=O)c3ccccc3)[C@]3(O)C[C@H](OC(=O)[C@H](OC(=O)CCC(=O)NCCCS(=O)(=O)O)[C@@H](NC(=O)c4ccccc4)c4ccccc4)C(C)=C1C3(C)C)[C@]1(OC(C)=O)CO[C@@H]1C[C@@H]2O` [2'-([4-((3-sulfopropyl)amino-1,4-dioxobutyl]oxy)taxolsodium salt], the “antineoplastic activity in mice” value [5] is listed as “active as antineoplastic agents in mice” and the “aqueous solubility” value [6] is listed as “improved water-solubility as compared with taxol”.

In the case of `CC(=O)O[C@H]1C(=O)[C@@]2(C)[C@H]([C@H](OC(=O)c3ccccc3)[C@]3(O)C[C@H](OC(=O)[C@H](OC(=O)CCN(C)C)[C@@H](NC(=O)c4ccccc4)c4ccccc4)C(C)=C1C3(C)C)[C@]1(OC(C)=O)CO[C@@H]1C[C@@H]2O` [2'-[3-(N,N-dimethylamino)propionyl]taxol], the “inhibition of proliferation of B16 melanoma cells relative to taxol” value [8] is given as “to an extent similar to that of taxol”.

With `CC(=O)O[C@H]1C(=O)[C@@]2(C)[C@H]([C@H](OC(=O)c3ccccc3)[C@]3(O)C[C@H](OC(=O)[C@H](OC(=O)c4ccc(S(=O)(=O)O)cc4)[C@@H](NC(=O)c4ccccc4)c4ccccc4)C(C)=C1C3(C)C)[C@]1(OC(C)=O)CO[C@@H]1C[C@@H]2O` [Compound 12, 2'-(4-sulfobenzoyl) taxol, sodium salt] the “Relative Solubility (p')” value [1] was 166 and the “Stabilities at pH 5” value [2, 12] was greater than 24 h.

For `CC(=O)O[C@H]1C(=O)[C@@]2(C)[C@H]([C@H](OC(=O)c3ccccc3)[C@]3(O)C[C@H](OC(=O)[C@H](OC(=O)CCCC(=O)NCCCN(C)C)[C@@H](NC(=O)c4ccccc4)c4ccccc4)C(C)=C1C3(C)C)[C@]1(OC(C)=O)CO[C@@H]1C[C@@H]2O`, the “antitumor activity” value [9] is listed as “good solubility and bioactivity”.

For `CC(=O)O[C@H]1C(=O)[C@@]2(C)[C@H]([C@H](OC(=O)c3ccccc3)[C@]3(O)C[C@H](OC(=O)[C@H](OC(=O)CN(C)C)[C@@H](NC(=O)c4ccccc4)c4ccccc4)C(C)=C1C3(C)C)[C@]1(OC(C)=O)CO[C@@H]1C[C@@H]2O` [2'-(N,N-dimethylglycyl) taxol], the “inhibition of proliferation of B16 melanoma cells relative to taxol” value [8] is listed as “to an extent similar to that of taxol”.

For `CC[C@]1(O)C[C@@H]2CN(CCc3c([nH]c4ccccc34)[C@@](C(=O)OC)(c3cc4c(cc3OC)N(C)[C@H]3[C@@](O)(C(=O)OC)[C@H](OC(C)=O)[C@]5(CC)C=CCN6CC[C@]43[C@@H]65)C2)C1` [vinblastine], the “effect on microtubule / tubulin polymer formation” value [10] is listed as “prevent microtubule formation”.
